Structures are written as SMILES.

For one compound, Body temperature increase and IC50 results are on record in patent US8921373B2, “Compounds having TRPV1 antagonistic activity and uses thereof” (Shionogi & Co., Ltd., priority 2010, dated 2014).

The nature of data set [1]: Measurement of body temperature increase (rectal body temperature). Type of data set: in vivo, rat. The note with it: Crl/SD rats, oral, 1 mg/mL at 10 mL/kg. Here is the method: Test Animals: Selection of rats (Crl/SD rats, 7 weeks, male) for this study was based on rectal body temperature measured during the morning of the day of dosing. In addition, animals selected for this study were acclimated to both the rectal measurement procedure and to being handled and dosed to minimize spontaneous, stress-induced, increases in body temperature. The study was conducted in the animal care laboratories where the room temperature and humidity were kept. The rats were free to move and food and water during the study. Each rat was numbered with color line on the tail, housed in each cage and permitted the normal range of movement. Immediately before each body temperature was measured, they transferred to a single cage at each measurement. To reduce stress which affected the body temperature, the rats were covered with towels at the measurement. The thermistor probe was then carefully inserted into the rectum of each rat and left in place until the value on the digital display had stabilized.
Assays: On the day before dosing, rectal body temperatures were measured at 9:00, 10:00, 11:00, 12:30, 13:30, 14:30 and 15:30 to familiarize the animals with the measurement procedure prior to administration of the test or control treatments. The rats were also dosed by oral gavage without vehicle at 12:30 to acclimate and familiarized the animals with the handling and dosing procedure.
On the day of dosing, only rats whose rectal body temperatures were within the range of 37.0° C. to 37.7° C. were selected for this study. Rectal body temperatures were measured at 9:00, 10:00 and 11:00. Rats whose rectal body temperatures were over 37.9° C. at 10:00, and were outside the range of 37.0° C. to 37.7° C. at 11:00 were excluded from the study. The selected rats were divided to several groups based on their rectal body temperatures at 11:00. Rectal body temperatures of the selected rats were measured again at 12:30, and any rats whose rectal body temperature was 38.0° C. or greater were excluded from the study.
Following the group assignment, test compounds or vehicle was administrated to the rats. Each test compound was dissolved in 0.5% methylcellurose and the final concentration of the compound was adjusted to 1 mg/mL. Test compound was orally administrated in a volume 10 mL/kg once. 10 mL/kg of vehicle (0.5% methylcellurose) was administered to the vehicle group. The rectal body temperatures were measured 0.5, 1 and 2 hrs after the administration. The study was conducted in the animal care laboratories where the room temperature and humidity were kept.
Body temperature increase (ΔTb) was calculated from the difference from an average of the vehicle group at each time point.

A further data set addresses human recombinant TRPV1 (Homo sapiens (Human), UniProt Q8NER1). In words: TRPV1 Capsaicin-Based Assay (Protocol 2, TRPV1/CHO cells, Fluo-4, FLIPR). The format is cell-based. Particulars: TRPV1/CHO cells, capsaicin 100 nM final; read-out: IC50 value by the Capsaicin-Based Assay. The gist of the method:
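CHO cells stably expressing human TRPV1 were loaded with 3 μM Fluo-4 for 1 h, then given compounds in HBSS/1 mM CaCl2/20 mM HEPES pH 7.4 with 1% DMSO for 2 min before 100 nM capsaicin (final). FLIPR fluorescence recorded over the full course; curves fitted.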

Chain of human recombinant TRPV1 (Q8NER1 whole entry): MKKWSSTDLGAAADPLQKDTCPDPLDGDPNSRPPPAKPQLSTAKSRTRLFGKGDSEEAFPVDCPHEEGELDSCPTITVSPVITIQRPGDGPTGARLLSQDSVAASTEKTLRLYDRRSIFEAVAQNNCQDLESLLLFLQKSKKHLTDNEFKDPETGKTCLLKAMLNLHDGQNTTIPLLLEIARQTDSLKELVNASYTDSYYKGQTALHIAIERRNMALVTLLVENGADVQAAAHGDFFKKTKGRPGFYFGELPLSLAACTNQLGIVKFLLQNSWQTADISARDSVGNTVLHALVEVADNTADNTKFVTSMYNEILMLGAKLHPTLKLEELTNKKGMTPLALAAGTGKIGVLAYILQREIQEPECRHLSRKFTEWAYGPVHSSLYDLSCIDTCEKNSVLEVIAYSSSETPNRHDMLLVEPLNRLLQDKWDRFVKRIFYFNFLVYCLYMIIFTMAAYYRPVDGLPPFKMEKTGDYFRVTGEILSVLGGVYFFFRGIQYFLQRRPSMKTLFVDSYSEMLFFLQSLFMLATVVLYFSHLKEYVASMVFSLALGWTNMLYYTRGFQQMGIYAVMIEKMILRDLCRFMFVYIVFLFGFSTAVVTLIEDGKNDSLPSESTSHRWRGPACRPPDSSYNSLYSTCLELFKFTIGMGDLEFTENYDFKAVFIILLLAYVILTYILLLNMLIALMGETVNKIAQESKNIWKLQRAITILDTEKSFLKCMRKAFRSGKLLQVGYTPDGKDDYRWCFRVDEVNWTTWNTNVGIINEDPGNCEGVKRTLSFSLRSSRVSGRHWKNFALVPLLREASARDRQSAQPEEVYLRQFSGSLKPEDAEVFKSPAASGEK

As to `Cc1cc(NC(=O)N2CCC(F)(c3ncc(C[C@H](O)CO)cc3F)CC2)ccc1C(F)(F)F` [ACQ, (S)-4-(5-(2,3-dihydroxypropyl)-3-fluoropyridin-2-yl)-4-fluoro-N-(3-methyl-4-(trifluoromethyl)phenyl)piperidine-1-carboxamide], the Body temperature increase entry in data set [1] is “less than 0.5 °C”. In addition, at human recombinant TRPV1, the IC50 (as a rule, the concentration that gives 50% inhibition) was ≤ 0.05 µM.
